Data from the kinase profiling compilation of Christmann-Franck et al. (2016).

What was measured:
Test in all cases: KINOMEscan competition binding
Conditions in all cases: compound 10.0 µM
RPS6KA5 KD1 (human) = RPS6KA5 KD1 (human) (UniProt O75582)
CDK19 (human) = CDK19 (human) (UniProt Q9BWU1)
STK17B (human) = STK17B (human) (UniProt O94768)
MAP2K1 (human) = MAP2K1 (human) (UniProt Q02750)
CHEK2 (human) = CHEK2 (human) (UniProt O96017)
MARK2 (human) = MARK2 (human) (UniProt Q7KZI7)
ALK (human) = ALK (human) (UniProt Q9UM73)
SIK1 (human) = SIK1 (human) (UniProt P57059)
SGK110 (human) = SGK110 (human) (UniProt P0C264)
PIP5K1A (human) = PIP5K1A (human) (UniProt Q99755)
MAPK9 (human) = MAPK9 (human) (UniProt P45984)
MAPK11 (human) = MAPK11 (human) (UniProt Q15759)
Sequence of MAPK11 (human) (Q15759 whole entry, looked up): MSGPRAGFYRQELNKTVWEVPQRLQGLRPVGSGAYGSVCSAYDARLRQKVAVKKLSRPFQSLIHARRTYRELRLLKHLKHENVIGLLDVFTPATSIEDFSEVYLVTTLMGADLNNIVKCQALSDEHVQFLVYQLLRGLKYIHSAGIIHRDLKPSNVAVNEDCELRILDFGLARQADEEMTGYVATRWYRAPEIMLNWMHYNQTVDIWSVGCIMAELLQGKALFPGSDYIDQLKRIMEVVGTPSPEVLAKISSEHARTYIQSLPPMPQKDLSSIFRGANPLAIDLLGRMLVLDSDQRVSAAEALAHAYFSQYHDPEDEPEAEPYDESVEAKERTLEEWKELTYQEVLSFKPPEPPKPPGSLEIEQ

ACVR1B (human) = ACVR1B (human) (UniProt P36896)
MAP3K5 (human) = MAP3K5 (human) (UniProt Q99683)
Sequence of MAP3K5 (human) (Q99683 whole entry, looked up): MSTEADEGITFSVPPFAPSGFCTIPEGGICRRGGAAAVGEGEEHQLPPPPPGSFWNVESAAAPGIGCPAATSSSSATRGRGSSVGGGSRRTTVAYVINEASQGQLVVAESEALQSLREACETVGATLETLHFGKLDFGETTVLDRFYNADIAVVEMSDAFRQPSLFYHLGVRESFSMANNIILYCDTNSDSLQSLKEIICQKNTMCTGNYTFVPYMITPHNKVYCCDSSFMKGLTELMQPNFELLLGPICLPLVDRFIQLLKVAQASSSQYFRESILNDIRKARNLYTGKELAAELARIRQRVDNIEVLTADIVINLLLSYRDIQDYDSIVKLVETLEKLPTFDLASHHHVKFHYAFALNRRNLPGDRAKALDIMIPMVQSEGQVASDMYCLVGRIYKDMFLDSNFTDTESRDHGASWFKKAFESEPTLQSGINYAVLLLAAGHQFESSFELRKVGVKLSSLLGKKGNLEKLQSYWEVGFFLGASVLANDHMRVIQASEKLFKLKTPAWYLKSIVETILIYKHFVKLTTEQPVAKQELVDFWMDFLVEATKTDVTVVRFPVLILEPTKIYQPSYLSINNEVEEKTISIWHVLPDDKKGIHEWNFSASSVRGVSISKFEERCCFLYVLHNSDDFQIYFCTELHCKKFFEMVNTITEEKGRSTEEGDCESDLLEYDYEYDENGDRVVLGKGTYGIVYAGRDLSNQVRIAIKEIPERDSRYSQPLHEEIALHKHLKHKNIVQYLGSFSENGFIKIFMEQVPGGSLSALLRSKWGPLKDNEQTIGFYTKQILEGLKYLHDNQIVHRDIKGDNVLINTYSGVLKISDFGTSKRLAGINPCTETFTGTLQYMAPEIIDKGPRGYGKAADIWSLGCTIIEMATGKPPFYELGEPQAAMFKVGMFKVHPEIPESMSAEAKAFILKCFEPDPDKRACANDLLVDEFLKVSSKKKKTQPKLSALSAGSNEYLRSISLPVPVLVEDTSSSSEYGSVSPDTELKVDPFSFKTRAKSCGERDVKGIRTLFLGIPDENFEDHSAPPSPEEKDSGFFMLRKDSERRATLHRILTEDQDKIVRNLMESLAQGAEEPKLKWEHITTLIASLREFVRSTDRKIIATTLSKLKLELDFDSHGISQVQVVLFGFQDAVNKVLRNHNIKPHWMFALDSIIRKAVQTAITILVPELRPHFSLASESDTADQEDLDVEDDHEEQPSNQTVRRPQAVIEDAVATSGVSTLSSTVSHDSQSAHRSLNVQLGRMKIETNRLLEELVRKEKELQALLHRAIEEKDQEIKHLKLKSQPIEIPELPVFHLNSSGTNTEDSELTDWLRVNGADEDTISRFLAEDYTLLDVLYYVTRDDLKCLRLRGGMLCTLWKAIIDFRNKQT

MAP2K3 (human) = MAP2K3 (human) (UniProt P46734)
Sequence of MAP2K3 (human) (P46734 whole entry, looked up): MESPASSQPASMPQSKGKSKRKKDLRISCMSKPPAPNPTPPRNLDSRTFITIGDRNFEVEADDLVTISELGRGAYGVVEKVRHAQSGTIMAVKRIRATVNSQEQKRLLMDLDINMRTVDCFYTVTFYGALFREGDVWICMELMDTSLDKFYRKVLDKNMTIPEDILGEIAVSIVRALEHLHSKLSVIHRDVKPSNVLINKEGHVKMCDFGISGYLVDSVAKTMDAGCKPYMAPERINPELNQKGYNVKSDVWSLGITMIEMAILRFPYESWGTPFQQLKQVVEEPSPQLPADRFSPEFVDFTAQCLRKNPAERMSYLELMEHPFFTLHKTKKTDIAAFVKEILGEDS

NEK5 (human) = NEK5 (human) (UniProt Q6P3R8)
Sequence of NEK5 (human) (Q6P3R8 whole entry, looked up): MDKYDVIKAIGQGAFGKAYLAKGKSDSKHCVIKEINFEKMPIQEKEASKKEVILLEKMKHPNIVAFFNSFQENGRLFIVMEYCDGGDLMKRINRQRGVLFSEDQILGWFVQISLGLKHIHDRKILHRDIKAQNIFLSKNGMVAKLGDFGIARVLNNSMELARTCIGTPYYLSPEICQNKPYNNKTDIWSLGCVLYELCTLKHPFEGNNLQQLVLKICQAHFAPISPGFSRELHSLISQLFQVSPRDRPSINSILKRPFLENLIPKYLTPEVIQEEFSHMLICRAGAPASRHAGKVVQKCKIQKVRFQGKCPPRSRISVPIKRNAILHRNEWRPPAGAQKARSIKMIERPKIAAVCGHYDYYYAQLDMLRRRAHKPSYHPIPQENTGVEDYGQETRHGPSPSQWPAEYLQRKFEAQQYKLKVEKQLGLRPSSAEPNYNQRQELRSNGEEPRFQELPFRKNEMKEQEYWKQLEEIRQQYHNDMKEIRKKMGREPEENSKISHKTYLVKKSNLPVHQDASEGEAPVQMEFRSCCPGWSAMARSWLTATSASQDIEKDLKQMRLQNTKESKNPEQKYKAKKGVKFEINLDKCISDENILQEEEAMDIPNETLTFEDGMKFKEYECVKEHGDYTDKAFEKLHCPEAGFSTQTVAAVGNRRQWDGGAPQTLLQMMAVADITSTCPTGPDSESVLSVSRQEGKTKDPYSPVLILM

PRKX (human) = PRKX (human) (UniProt P51817)
SRPK2 (human) = SRPK2 (human) (UniProt P78362)
CAMKK2 (human) = CAMKK2 (human) (UniProt Q96RR4)
CLK2 (human) = CLK2 (human) (UniProt P49760)
Sequence of CLK2 (human) (P49760 whole entry, looked up): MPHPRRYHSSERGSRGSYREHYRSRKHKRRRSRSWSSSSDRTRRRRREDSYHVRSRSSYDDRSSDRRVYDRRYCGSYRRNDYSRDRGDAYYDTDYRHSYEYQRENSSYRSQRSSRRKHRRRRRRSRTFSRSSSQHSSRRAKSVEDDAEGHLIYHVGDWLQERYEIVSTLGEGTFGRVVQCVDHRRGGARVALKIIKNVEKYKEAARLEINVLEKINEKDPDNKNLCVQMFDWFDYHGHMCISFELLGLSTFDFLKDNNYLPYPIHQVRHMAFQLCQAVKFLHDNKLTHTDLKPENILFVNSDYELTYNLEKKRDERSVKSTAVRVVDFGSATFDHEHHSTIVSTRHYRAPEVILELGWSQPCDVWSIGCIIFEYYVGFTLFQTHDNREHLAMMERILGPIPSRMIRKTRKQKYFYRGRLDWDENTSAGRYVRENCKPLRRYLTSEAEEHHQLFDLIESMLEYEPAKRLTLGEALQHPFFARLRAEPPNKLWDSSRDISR

CDK3 (human) = CDK3 (human) (UniProt Q00526)
FYN (human) = FYN (human) (UniProt P06241)
STK36 (human) = STK36 (human) (UniProt Q9NRP7)
MAP3K3 (human) = MAP3K3 (human) (UniProt Q99759)
Sequence of MAP3K3 (human) (Q99759 whole entry, looked up): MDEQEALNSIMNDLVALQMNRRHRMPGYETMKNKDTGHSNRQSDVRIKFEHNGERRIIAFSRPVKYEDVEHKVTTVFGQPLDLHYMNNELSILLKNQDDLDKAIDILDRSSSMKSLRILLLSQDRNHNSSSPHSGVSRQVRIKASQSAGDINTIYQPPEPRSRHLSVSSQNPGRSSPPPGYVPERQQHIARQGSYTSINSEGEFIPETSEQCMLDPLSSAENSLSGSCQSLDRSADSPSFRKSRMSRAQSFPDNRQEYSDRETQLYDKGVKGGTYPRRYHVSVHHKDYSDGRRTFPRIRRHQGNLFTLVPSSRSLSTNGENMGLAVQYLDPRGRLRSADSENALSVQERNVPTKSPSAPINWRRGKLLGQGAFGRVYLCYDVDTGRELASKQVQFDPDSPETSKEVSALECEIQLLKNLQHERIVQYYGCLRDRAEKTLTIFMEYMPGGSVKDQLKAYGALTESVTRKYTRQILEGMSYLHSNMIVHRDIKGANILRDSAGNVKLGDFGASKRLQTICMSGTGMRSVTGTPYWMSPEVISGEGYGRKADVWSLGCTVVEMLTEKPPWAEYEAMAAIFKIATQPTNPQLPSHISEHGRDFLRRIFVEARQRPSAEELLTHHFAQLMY

MAPK3 (human) = MAPK3 (human) (UniProt P27361)
IKBKE (human) = IKBKE (human) (UniProt Q14164)
Sequence of IKBKE (human) (Q14164 whole entry, looked up): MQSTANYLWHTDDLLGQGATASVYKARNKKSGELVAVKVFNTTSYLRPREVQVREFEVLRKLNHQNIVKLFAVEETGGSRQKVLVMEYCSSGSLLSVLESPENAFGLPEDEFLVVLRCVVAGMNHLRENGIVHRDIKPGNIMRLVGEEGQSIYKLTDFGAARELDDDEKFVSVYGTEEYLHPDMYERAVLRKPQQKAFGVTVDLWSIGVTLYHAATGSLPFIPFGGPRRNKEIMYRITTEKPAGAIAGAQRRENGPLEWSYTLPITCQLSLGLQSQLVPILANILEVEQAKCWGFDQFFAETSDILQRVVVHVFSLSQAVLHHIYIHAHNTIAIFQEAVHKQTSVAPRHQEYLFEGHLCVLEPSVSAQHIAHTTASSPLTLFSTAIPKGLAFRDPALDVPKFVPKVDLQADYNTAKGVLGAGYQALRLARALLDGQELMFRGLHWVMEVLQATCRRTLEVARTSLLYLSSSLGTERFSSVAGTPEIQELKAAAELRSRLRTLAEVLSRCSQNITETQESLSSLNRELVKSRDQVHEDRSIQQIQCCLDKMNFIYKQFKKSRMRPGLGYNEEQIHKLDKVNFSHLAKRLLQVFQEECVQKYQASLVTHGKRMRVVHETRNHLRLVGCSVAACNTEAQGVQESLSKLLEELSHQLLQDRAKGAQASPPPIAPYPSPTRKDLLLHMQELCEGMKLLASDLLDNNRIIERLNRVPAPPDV

ACVR2B (human) = ACVR2B (human) (UniProt Q13705)
EPHA4 (human) = EPHA4 (human) (UniProt P54764)
[1] = target: TYK2 JH2 pseudokinase (human) (UniProt P29597)
LTK (human) = LTK (human) (UniProt P29376)
CHUK (human) = CHUK (human) (UniProt O15111)
TESK1 (human) = TESK1 (human) (UniProt Q15569)
PAK2 (human) = PAK2 (human) (UniProt Q13177)
ROCK2 (human) = ROCK2 (human) (UniProt O75116)
EPHA2 (human) = EPHA2 (human) (UniProt P29317)
YES1 (human) = YES1 (human) (UniProt P07947)
KDR (human) = KDR (human) (UniProt P35968)
PRKD2 (human) = PRKD2 (human) (UniProt Q9BZL6)
SYK (human) = SYK (human) (UniProt P43405)
GSK3A (human) = GSK3A (human) (UniProt P49840)

Sequence of STK17B (human) (O94768 whole entry, looked up): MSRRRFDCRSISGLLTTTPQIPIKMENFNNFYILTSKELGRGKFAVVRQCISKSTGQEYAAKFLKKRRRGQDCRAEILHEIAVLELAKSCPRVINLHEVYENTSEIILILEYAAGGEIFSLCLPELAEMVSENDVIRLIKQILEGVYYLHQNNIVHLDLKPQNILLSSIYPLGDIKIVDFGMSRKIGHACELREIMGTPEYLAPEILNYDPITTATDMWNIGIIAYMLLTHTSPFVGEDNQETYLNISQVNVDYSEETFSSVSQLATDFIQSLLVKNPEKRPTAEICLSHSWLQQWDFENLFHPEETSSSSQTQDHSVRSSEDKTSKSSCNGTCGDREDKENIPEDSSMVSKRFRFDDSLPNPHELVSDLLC

Compound | kinase still bound, per cent of control (RPS6KA5 KD1 (human)) [%] | kinase still bound, per cent of control (CDK19 (human)) [%] | kinase still bound, per cent of control (STK17B (human)) [%] | kinase still bound, per cent of control (MAP2K1 (human)) [%] | kinase still bound, per cent of control (CHEK2 (human)) [%] | kinase still bound, per cent of control (MARK2 (human)) [%] | kinase still bound, per cent of control (ALK (human)) [%] | kinase still bound, per cent of control (SIK1 (human)) [%] | kinase still bound, per cent of control (SGK110 (human)) [%] | kinase still bound, per cent of control (PIP5K1A (human)) [%] | kinase still bound, per cent of control (MAPK9 (human)) [%] | kinase still bound, per cent of control (MAPK11 (human)) [%] | kinase still bound, per cent of control (ACVR1B (human)) [%] | kinase still bound, per cent of control (MAP3K5 (human)) [%] | kinase still bound, per cent of control (MAP2K3 (human)) [%] | kinase still bound, per cent of control (NEK5 (human)) [%] | kinase still bound, per cent of control (PRKX (human)) [%] | kinase still bound, per cent of control (SRPK2 (human)) [%] | kinase still bound, per cent of control (CAMKK2 (human)) [%] | kinase still bound, per cent of control (CLK2 (human)) [%] | further results
Nc1ccc(-c2ccc3ncc4ccc(=O)n(-c5cccc(C(F)(F)F)c5)c4c3c2)cn1 | 100 | 100 | 89 | 100 | 100 | 100 | 100 | 79 | 100 | 78 | 89 | 83 | 96 | 100 | 66 | 94 | 100 | 100 | 99 | 15 | kinase still bound, per cent of control (CDK3 (human)): 100%; kinase still bound, per cent of control (FYN (human)): 92%; kinase still bound, per cent of control (STK36 (human)): 99%; kinase still bound, per cent of control (MAP3K3 (human)): 84%; kinase still bound, per cent of control (MAPK3 (human)): 100%; kinase still bound, per cent of control (IKBKE (human)): 89%; kinase still bound, per cent of control (ACVR2B (human)): 97%; kinase still bound, per cent of control (EPHA4 (human)): 100%; kinase still bound, per cent of control [1]: 6.3%; kinase still bound, per cent of control (LTK (human)): 100%; kinase still bound, per cent of control (CHUK (human)): 55%; kinase still bound, per cent of control (TESK1 (human)): 94%; kinase still bound, per cent of control (PAK2 (human)): 100%; kinase still bound, per cent of control (ROCK2 (human)): 81%; kinase still bound, per cent of control (EPHA2 (human)): 99%; kinase still bound, per cent of control (YES1 (human)): 100%; kinase still bound, per cent of control (KDR (human)): 100%; kinase still bound, per cent of control (PRKD2 (human)): 100%; kinase still bound, per cent of control (SYK (human)): 100%; kinase still bound, per cent of control (GSK3A (human)): 100%
C=CC(=O)Nc1cccc(Nc2nc(N[C@H]3CC[C@H](N(C)C)CC3)nc3c2ncn3C(C)C)c1 | 93 | 100 | 22 | 83 | 60 | 57 | 21 | 85 | 88 | 36 | 100 | 89 | 87 | 100 | 77 | 94 | 100 | 92 | 25 | 0.5 | kinase still bound, per cent of control (CDK3 (human)): 95%; kinase still bound, per cent of control (FYN (human)): 23%; kinase still bound, per cent of control (STK36 (human)): 100%; kinase still bound, per cent of control (MAP3K3 (human)): 2.7%; kinase still bound, per cent of control (MAPK3 (human)): 100%; kinase still bound, per cent of control (IKBKE (human)): 95%; kinase still bound, per cent of control (ACVR2B (human)): 91%; kinase still bound, per cent of control (EPHA4 (human)): 64%; kinase still bound, per cent of control [1]: 100%; kinase still bound, per cent of control (LTK (human)): 88%; kinase still bound, per cent of control (CHUK (human)): 82%; kinase still bound, per cent of control (TESK1 (human)): 93%; kinase still bound, per cent of control (PAK2 (human)): 61%; kinase still bound, per cent of control (ROCK2 (human)): 10%; kinase still bound, per cent of control (EPHA2 (human)): 60%; kinase still bound, per cent of control (YES1 (human)): 23%; kinase still bound, per cent of control (KDR (human)): 96%; kinase still bound, per cent of control (PRKD2 (human)): 100%; kinase still bound, per cent of control (SYK (human)): 72%; kinase still bound, per cent of control (GSK3A (human)): 100%
